Measured values published in ChEMBL document CHEMBL5500393, “Discovery and Optimization of Novel SaFabI Inhibitors as Specific Therapeutic Agents for MRSA Infection” (J Med Chem, 2024).
Converted amounts (≈) assume the structure as drawn. The source made the active and inactive calls. The calls are words filed in the database; no cut-off is given here.

Tests used:
[1] = Inhibition of N-terminal his 6 tagged Escherichia coli Fabi (1 to 789 residues) expressed in Escherichia coli BL21 incubated for 30 mins in presence of NADH by fluorescence based microplate reader analysis
Staphylococcus aureus [2] = experiment: Antimicrobial activity against […] Staphylococcus aureus ATCC43300 measured after 24 hrs by CLSI protocol based microdilution method; assay type: functional
Staphylococcus aureus [3] = experiment: Antimicrobial activity against methicillin-susceptible Staphylococcus aureus ATCC29213 measured after 24 hrs by CLSI protocol based microdilution method; assay type: functional
Staphylococcus aureus [4] = experiment: Antimicrobial activity against methicillin-susceptible Staphylococcus aureus ATCC25923 measured after 24 hrs by CLSI protocol based microdilution method; assay type: functional
Enterococcus faecalis = experiment: Antimicrobial activity against Enterococcus faecalis ATCC29212 measured after 24 hrs by CLSI protocol based microdilution method; assay type: functional
Pseudomonas aeruginosa = experiment: Antimicrobial activity against Pseudomonas aeruginosa PAO1 measured after 24 hrs by CLSI protocol based microdilution method; assay type: functional
Candida albicans = experiment: Antimicrobial activity against Candida albicans SC5314 measured after 48 hrs by CLSI protocol based microdilution method; assay type: functional
[5] = Cytotoxicity against HEK293 cells assessed as survival rate at 400 uM measured after 48 hrs by CCK-8 method relative to control; assay type: toxicity, cell-based; conditions: human, read-out: Survival
HepG2 [6] = experiment: Cytotoxicity against human HepG2 cells assessed as survival rate at 400 uM measured after 48 hrs by CCK-8 method relative to control; assay type: functional; conditions: read-out: Survival
[7] = Cytotoxicity against HEK293 cells assessed as survival rate at 800 uM measured after 48 hrs by CCK-8 method relative to control; assay type: toxicity, cell-based; conditions: human, read-out: Survival
HepG2 [8] = experiment: Cytotoxicity against human HepG2 cells assessed as survival rate at 800 uM measured after 48 hrs by CCK-8 method relative to control; assay type: functional; conditions: read-out: Survival
[9] = Hemolytic activity in sheep erythrocytes assessed as hemolysis at 64 ug/ml incubated for 1 hr by microplate reader based analysis relative to control; assay type: toxicity, cell-based, Ovis aries, Erythrocyte; conditions: at 64 µg/mL, read-out: Activity
[10] = Hemolytic activity in sheep erythrocytes assessed as hemolysis at 128 ug/ml incubated for 1 hr by microplate reader based analysis relative to control; assay type: toxicity, cell-based, Ovis aries, Erythrocyte; conditions: at 128 µg/mL, read-out: Activity
[11] = Hemolytic activity in sheep erythrocytes assessed as hemolysis incubated for 1 hr by microplate reader based analysis; assay type: toxicity, cell-based, Ovis aries, Erythrocyte
Staphylococcus aureus [12] = experiment: Antimicrobial activity against Staphylococcus aureus measured after 24 hrs by CLSI protocol based microdilution method; assay type: functional
Staphylococcus aureus [13] = experiment: Bactericidal activity against […] Staphylococcus aureus ATCC33591 assessed as reduction in bacterial count at 4 times MIC measured within 24 hrs by time-kill assay; assay type: functional, organism-based
Staphylococcus aureus [14] = experiment: Bactericidal activity against […] Staphylococcus aureus ATCC33591 assessed as reduction in bacterial count at 8 times MIC measured within 8 to 12 hrs by time-kill assay; assay type: functional, organism-based; conditions: time 8-12 hrs
Cell membrane [15] = experiment: Induction of cell membrane permeability in methicillin-resistant Staphylococcus aureus ATCC33591 assessed as increase in fluorescence measured after 30 mins by 7-AAD staining based analysis; assay type: cell membranes
Cell membrane [16] = experiment: Induction of cell membrane permeability in methicillin-resistant Staphylococcus aureus ATCC33591 assessed as increase in fluorescence measured after 30 mins by Annexin V-FITC staining based analysis; assay type: cell membranes
Cell membrane [17] = experiment: Induction of cell membrane permeability in methicillin-resistant Staphylococcus aureus ATCC33591 assessed as fold increase in fluorescence intensity at 0.5 times MIC measured after 30 mins by 7-AAD staining based analysis; assay type: cell membranes
Cell membrane [18] = experiment: Induction of cell membrane permeability in methicillin-resistant Staphylococcus aureus ATCC33591 assessed as fold increase in fluorescence intensity at 1 times MIC measured after 30 mins by Annexin V-FITC staining based analysis; assay type: cell membranes
Cell membrane [19] = experiment: Induction of cell membrane damage in methicillin-resistant Staphylococcus aureus ATCC33591 assessed as appearance of inward wrinkling in cell surface at 1 times MIC measured after 30 mins by TEM analysis; assay type: cell membranes
Staphylococcus aureus [20] = experiment: Antimicrobial activity against wild type Staphylococcus aureus RN4220 measured after 24 hrs by CLSI protocol based microdilution method; assay type: functional
Staphylococcus aureus [21] = experiment: Antimicrobial activity against Staphylococcus aureus RN4220 harbouring pCM-sfgfp measured after 24 hrs by CLSI protocol based microdilution method; assay type: functional
Staphylococcus aureus [22] = experiment: Antimicrobial activity against Staphylococcus aureus RN4220 harbouring pCM-sfgfp::fabi (promoter-sarA) measured after 24 hrs by CLSI protocol based microdilution method; assay type: functional
[23] = Acute toxicity in female BALB/c mouse assessed as effect on body weight at 800 mg/kg, po measured after 14 days; assay type: organism-based; conditions: in vivo, 336 h, time 14 day
[24] = Acute toxicity in female BALB/c mouse assessed as effect on AST level in serum at 800 mg/kg, po measured after 14 days; assay type: organism-based; conditions: in vivo, 336 h, time 14 day
[25] = Acute toxicity in female BALB/c mouse assessed as effect on TP level in serum at 800 mg/kg, po measured after 14 days; assay type: organism-based; conditions: in vivo, 336 h, time 14 day
[26] = Acute toxicity in female BALB/c mouse assessed as effect on UREA level in serum at 800 mg/kg, po measured after 14 days; assay type: organism-based; conditions: in vivo, 336 h, time 14 day
[27] = Acute toxicity in female BALB/c mouse assessed as effect on kidney at 800 mg/kg, po measured after 14 days by H and E staining based analysis; assay type: organism-based; conditions: in vivo, 336 h, time 14 day
[28] = Drug concentration in BALB/c mouse plasma at 800 mg/kg, po measured after 1 hr by LC-MS analysis; assay type: ADME, organism-based
[29] = Drug concentration in BALB/c mouse plasma at 1200 mg/kg, po measured after 1 hr by LC-MS analysis; assay type: ADME, organism-based
[30] = Clearance in female Sprague-Dawley rat at 5 mg/kg, iv measured upto 24 hrs by LC-MS analysis; assay type: ADME, organism-based; conditions: in vivo
[31] = AUC (0 to t) in female Sprague-Dawley rat at 5 mg/kg, iv measured upto 24 hrs by LC-MS analysis; assay type: ADME, organism-based; conditions: in vivo
[32] = Cmax in female Sprague-Dawley rat at 20 mg/kg, po measured upto 24 hrs by LC-MS analysis; assay type: ADME, organism-based; conditions: in vivo
[33] = AUC (0 to t) in female Sprague-Dawley rat at 20 mg/kg, po measured upto 24 hrs by LC-MS analysis; assay type: ADME, organism-based; conditions: in vivo
[34] = Oral bioavailability in female Sprague-Dawley rat at 20 mg/kg measured upto 24 hrs by LC-MS analysis; assay type: ADME, organism-based; conditions: in vivo

Structure (SMILES) | IC50 [1] [nM] | MIC (Staphylococcus aureus [2]) [µg/mL] | MIC (Staphylococcus aureus [3]) [µg/mL] | MIC (Staphylococcus aureus [4]) [µg/mL] | MIC (Enterococcus faecalis) [µg/mL] | MIC (Pseudomonas aeruginosa) [µg/mL] | MIC (Candida albicans) [µg/mL] | viability at 48 h, 400 µM [5] [%] | viability at 400 µM (HepG2 [6]) [%] | viability at 48 h, 800 µM [7] [%] | viability at 800 µM (HepG2 [8]) [%] | hemolysis at 1 h, 64 ug/ml [9] [%] | hemolysis at 1 h, 128 ug/ml [10] [%] | HC50 at 1 h [11] [µg/mL] | MIC (Staphylococcus aureus [12]) [µg/mL] | Activity (Staphylococcus aureus [13]) | Activity (Staphylococcus aureus [14]) | Activity (Cell membrane [15]) | Activity (Cell membrane [16]) | fold change (FC) (Cell membrane [17]) | other results
COc1c(Br)cccc1N1CC(c2nc3ccccc3n2C)CC1=O (centres undefined) | 35.9 | 2 (≈ 5 µM) | 1 (≈ 2.5 µM) | 2 (≈ 5 µM) | > 32 | > 32 | > 32 | > 70 | > 70 | > 65 | > 65 | 1.9 | 3.4 | > 256 | 1 (≈ 2.5 µM) | Below limit of detection | Below limit of detection | Active | Active | 1.5 | fold change (FC) (Cell membrane [18]): 2.4; Activity (Cell membrane [19]): Active; MIC (Staphylococcus aureus [20]): 2 µg/mL (≈ 5 µM); MIC (Staphylococcus aureus [21]): 2 µg/mL (≈ 5 µM); MIC (Staphylococcus aureus [22]): > 32 µg/mL; Activity [23]: Non-Toxic; Activity [24]: Non-Toxic; Activity [25]: Non-Toxic; Activity [26]: Non-Toxic; Activity [27]: Non-Toxic; concentration at 1 h [28]: 32700 ng/mL; concentration at 1 h [29]: 46500 ng/mL; clearance [30]: 36.7 mL/min/kg; AUCt [31]: 2264.4 ng·h/mL; Cmax [32]: 1270 ng/mL; AUCt [33]: 3127 ng·h/mL; bioavailability [34]: 34.5%
Cc1c(Br)cccc1N1CC(c2nc3ccccc3n2C)CC1=O (centres undefined) | 35.9 | 1 (≈ 2.6 µM) | 1 (≈ 2.6 µM) | 1 (≈ 2.6 µM) | > 32 | > 32 | > 32 | > 70 | > 70 | > 75 | > 75 | 3.1 | 5 | > 256 | 1 (≈ 2.6 µM) | Below limit of detection | Below limit of detection | Active | Active | 1.6 | fold change (FC) (Cell membrane [18]): 2.6; Activity (Cell membrane [19]): Active; MIC (Staphylococcus aureus [20]): 2 µg/mL (≈ 5.2 µM); MIC (Staphylococcus aureus [21]): 2 µg/mL (≈ 5.2 µM); MIC (Staphylococcus aureus [22]): > 32 µg/mL; Activity [23]: Non-Toxic; Activity [24]: Non-Toxic; Activity [25]: Non-Toxic; Activity [26]: Non-Toxic; Activity [27]: Non-Toxic; concentration at 1 h [28]: 53600 ng/mL; concentration at 1 h [29]: 72100 ng/mL; clearance [30]: 26.7 mL/min/kg; AUCt [31]: 3238.8 ng·h/mL; Cmax [32]: 1520 ng/mL; AUCt [33]: 11149.1 ng·h/mL; bioavailability [34]: 86.1%
